Data from article PMC12564639, “Discovery of a Novel Anticoagulant Cystine Knot Peptide from Spider Venom Gland Transcriptome” (International Journal of Molecular Sciences, 2025).
Peptide text beside a SMILES is read from it.

Assays:
[1] = tested on: human embryonic kidney cells (HEK293T); assay: Cytotoxicity (CCK-8), HEK293T; format: cell-based; details: 24 h, n = 3
Method: The cytotoxicity of GC38 was evaluated in human embryonic kidney cells (HEK293T), human keratinocytes (HaCaT), and murine macrophage (RAW264.7) cell lines. The cells were from Kunming Cell Bank, Chinese Academy of Sciences. HEK293T and HaCaT cells were cultured in DMEM supplemented with 10% fetal bovine serum (FBS) and 1% penicillin-streptomycin, and RAW264.7 cells were maintained in RPMI 1640 containing 10% FBS and 1% penicillin–streptomycin, with all cell lines incubated at 37 °C under 5% CO2. For cytotoxicity assessment, cells were seeded at a density of 1 × 10^5 cells per well in 96-well plates and incubated for 12 h. […] After 24 h incubation, cell viability was determined using the CCK-8 assay (10 μL/well). Absorbance was measured at 450 nm using a multi-mode microplate reader (BioTek Synergy™ H1, Winooski, VT, USA). Untreated cells and cells treated with 10% DMSO served as negative and positive controls, respectively. Viability percentages were calculated relative to the untreated control. All experiments were conducted in triplicate, and data were expressed as mean ± SEM.

[2] = molecular target: T1, Human Activated Protein C (APC-1.0) (Homo sapiens, UniProt P04070); assay: Bio-layer interferometry (BLI) binding; details: Octet R2, SA biosensors, biotinylated APC 10 µg/mL, GC38 3.125-50 μM, PBS with 0.02% Tween-20, association 300 s, dissociation 180 s, average of three, read-out: dissociation constant (KD)
T1 construct: purchased Enzyme Research Laboratories, Inc., South Bend, IN, USA APC-1.0
Text: Human Activated Protein C (APC-1.0) was purchased from Enzyme Research Laboratories, Inc., South Bend, IN, USA. […] Activated Partial Thromboplastin Time (APTT) Test Kit (TC0306) was bought from Senkey Biotechnology Co., Ltd., Kunming, China. Prothrombin Time (PT) Test Kit (GMS10176) was purchased from GENMED Scientifics Inc., Shanghai, China. Streptavidin (SA) Biosensors (18-5019) were obtained from Sartorius AG, Göttingen, Lower Saxony, Germany. PBS (21-040-CVC) was bought from Corning Incorporated, Corning, NY, USA. Tween-20 (BS361B) was purchased from Biosharp Life Sciences, Hefei, Anhui, China. Trifluoroacetic acid (TFA, T818778-500ml, CAS: 76-05-1) and CaCl2 (C805225) were obtained from Macklin Biochemical Co., Ltd., Shanghai, China. L-oxidized glutathione (GSSG, V900363), Rose Bengal Dye (content 95%, CAS: 632-69-9, 330000-5G), and HEPES (V900477-500G) were purchased from Sigma-Aldrich LLC, St. Louis, MO, USA (Shanghai branch: Sigma-Aldrich Shanghai Trading Co., Ltd., Shanghai, China). […]
The binding affinity between APC and GC38 was measured using the Octet® R2 system (ForteBio, Fremont, CA, USA) with Streptavidin (SA) biosensors. […] Data were acquired and analyzed using Octet® Data Acquisition and Analysis software version 8.2. […]

CSCC[C@@H]1NC(=O)[C@H](CC(N)=O)NC(=O)CNC(=O)CNC(=O)[C@H](Cc2c[nH]cn2)NC(=O)[C@H](CCCNC(=N)N)NC(=O)CNC(=O)[C@@H]2CSSC[C@@H]3NC(=O)[C@H](CCCNC(=N)N)NC(=O)[C@H](C)NC(=O)CNC(=O)[C@H](CCCCN)NC(=O)CNC(=O)[C@H](CO)NC(=O)[C@@H](NC(=O)CN)CSSC[C@H](NC(=O)[C@H](CSSC[C@@H](C(=O)N[C@@H](CCC(=O)O)C(=O)N[C@@H](Cc4c[nH]c5ccccc45)C(=O)N[C@@H](CC(N)=O)C(=O)N[C@@H](Cc4c[nH]c5ccccc45)C(=O)N[C@@H](CCCCN)C(=O)N[C@H](C(=O)NCC(=O)O)[C@@H](C)O)NC(=O)[C@H](CO)NC(=O)[C@H](CCCCN)NC(=O)[C@H](Cc4ccc(O)cc4)NC1=O)NC(=O)[C@H](CCCCN)NC(=O)[C@H](CO)NC(=O)[C@@H]1CCCN1C(=O)[C@H](C)NC3=O)C(=O)N[C@@H](CO)C(=O)NCC(=O)N[C@@H](CC(C)C)C(=O)N[C@@H](CO)C(=O)N2 [GC38] (HELM PEPTIDE1{G.C.S.G.K.G.A.R.C.A.P.S.K.C.C.S.G.L.S.C.G.R.H.G.G.N.M.Y.K.S.C.E.W.N.W.K.T.G}$PEPTIDE1,PEPTIDE1,2:R3-15:R3|PEPTIDE1,PEPTIDE1,9:R3-20:R3|PEPTIDE1,PEPTIDE1,14:R3-31:R3$$$V2.0)
cell viability HEK293T ([1]; 50 μM, serum-free medium, CCK-8, 450 nm, relative to untreated control): greater than 95%
cytotoxicity HEK293T ([1]; 0.1–50 μM, CCK-8): negligible cytotoxicity
Kd [2]: 6.16 µM
